From ChEMBL document CHEMBL4627331 (Bioorg Med Chem Lett, 2020)

How the values were obtained:
[1] = molecular target: acetylcholinesterase (AChE) (Homo sapiens, UniProt P22303); test: Inhibition of human AchE at 100 uM relative to control; conditions: human AChE enzyme
Acetylcholinesterase [2] = molecular target: Acetylcholinesterase (Electrophorus electricus, UniProt O42275); test: Inhibition of electric eel AchE using acetylthiocholine as substrate by Ellman's method
Cholinesterase [3] = molecular target: Cholinesterase (Homo sapiens, UniProt P06276); test: Inhibition of human BuchE
[4] = Selectivity index, ratio of IC50 for equine BuchE using butyrylthiocholine as substrate by Ellman's method to IC50 for human BuchE
Acetylcholinesterase [5] = molecular target: Acetylcholinesterase (Homo sapiens, UniProt P22303); test: Inhibition of human AchE
[6] = molecular target: acetylcholinesterase (AChE) (Electrophorus electricus, UniProt O42275); test: Inhibition of electric eel AchE at 100 uM using acetylthiocholine as substrate by Ellman's method relative to control; conditions: electric eel AChE enzyme, probe acetylthiocholine
Cholinesterase [7] = molecular target: Cholinesterase (Equus caballus, UniProt P81908)
Description: Inhibition of equine BuchE using butyrylthiocholine as substrate by Ellman's method

[8] = Cytotoxicity against human SH-SY5Y cells by MTT assay; type: cell-based

Cholinesterase (Equus caballus, UniProt P81908), sequence (P81908 whole entry): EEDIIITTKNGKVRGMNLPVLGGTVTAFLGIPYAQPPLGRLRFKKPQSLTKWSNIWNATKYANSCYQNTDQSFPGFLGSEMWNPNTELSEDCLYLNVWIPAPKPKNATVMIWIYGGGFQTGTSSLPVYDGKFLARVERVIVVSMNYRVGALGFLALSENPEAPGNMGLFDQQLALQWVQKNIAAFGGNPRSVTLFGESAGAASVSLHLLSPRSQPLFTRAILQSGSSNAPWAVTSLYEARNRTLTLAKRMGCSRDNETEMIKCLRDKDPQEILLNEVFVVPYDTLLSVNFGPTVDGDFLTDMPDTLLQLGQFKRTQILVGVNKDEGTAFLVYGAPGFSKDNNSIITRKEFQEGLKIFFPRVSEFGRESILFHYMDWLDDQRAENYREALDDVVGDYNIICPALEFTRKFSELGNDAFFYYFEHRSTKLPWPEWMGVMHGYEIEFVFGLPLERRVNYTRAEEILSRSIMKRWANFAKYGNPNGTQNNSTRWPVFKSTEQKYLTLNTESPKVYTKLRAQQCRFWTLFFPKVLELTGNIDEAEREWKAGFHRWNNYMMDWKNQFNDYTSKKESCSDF
acetylcholinesterase (AChE) (Electrophorus electricus, UniProt O42275), sequence (O42275 whole entry): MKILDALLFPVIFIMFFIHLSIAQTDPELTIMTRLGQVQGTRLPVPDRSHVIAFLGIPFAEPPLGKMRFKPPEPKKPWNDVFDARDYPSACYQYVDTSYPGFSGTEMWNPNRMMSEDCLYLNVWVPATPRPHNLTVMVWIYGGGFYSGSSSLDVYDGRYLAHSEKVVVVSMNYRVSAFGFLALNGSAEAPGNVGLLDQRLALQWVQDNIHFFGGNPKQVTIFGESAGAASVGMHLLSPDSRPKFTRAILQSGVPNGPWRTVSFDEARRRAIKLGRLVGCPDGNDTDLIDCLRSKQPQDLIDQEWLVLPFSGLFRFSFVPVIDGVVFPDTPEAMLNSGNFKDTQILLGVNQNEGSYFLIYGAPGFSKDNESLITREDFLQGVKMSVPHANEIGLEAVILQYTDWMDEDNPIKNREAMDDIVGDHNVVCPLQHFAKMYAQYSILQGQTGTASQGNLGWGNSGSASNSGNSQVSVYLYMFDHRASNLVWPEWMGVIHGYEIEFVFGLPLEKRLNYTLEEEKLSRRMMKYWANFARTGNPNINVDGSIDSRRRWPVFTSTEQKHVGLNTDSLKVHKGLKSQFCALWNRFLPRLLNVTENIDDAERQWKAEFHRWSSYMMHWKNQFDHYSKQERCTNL
Acetylcholinesterase (Electrophorus electricus, UniProt O42275), sequence (O42275 whole entry): as above
Acetylcholinesterase (Homo sapiens, UniProt P22303), sequence (P22303 whole entry): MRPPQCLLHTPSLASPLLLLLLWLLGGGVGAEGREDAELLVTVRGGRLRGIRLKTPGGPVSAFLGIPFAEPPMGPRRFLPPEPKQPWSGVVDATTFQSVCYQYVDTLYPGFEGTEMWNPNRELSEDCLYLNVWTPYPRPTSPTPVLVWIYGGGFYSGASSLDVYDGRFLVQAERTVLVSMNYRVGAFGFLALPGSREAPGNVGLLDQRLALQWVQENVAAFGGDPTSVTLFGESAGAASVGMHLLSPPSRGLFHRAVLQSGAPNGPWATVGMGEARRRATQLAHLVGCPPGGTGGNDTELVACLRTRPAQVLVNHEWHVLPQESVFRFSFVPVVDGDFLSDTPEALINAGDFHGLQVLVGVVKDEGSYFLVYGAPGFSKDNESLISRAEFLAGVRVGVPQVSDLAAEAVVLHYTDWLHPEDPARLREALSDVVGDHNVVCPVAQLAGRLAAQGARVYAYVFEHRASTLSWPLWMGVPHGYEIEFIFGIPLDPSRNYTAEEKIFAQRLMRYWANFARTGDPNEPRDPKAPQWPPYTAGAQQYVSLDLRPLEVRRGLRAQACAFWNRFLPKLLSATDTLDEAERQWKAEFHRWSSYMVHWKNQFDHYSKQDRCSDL
Cholinesterase (Homo sapiens, UniProt P06276), sequence (P06276 whole entry): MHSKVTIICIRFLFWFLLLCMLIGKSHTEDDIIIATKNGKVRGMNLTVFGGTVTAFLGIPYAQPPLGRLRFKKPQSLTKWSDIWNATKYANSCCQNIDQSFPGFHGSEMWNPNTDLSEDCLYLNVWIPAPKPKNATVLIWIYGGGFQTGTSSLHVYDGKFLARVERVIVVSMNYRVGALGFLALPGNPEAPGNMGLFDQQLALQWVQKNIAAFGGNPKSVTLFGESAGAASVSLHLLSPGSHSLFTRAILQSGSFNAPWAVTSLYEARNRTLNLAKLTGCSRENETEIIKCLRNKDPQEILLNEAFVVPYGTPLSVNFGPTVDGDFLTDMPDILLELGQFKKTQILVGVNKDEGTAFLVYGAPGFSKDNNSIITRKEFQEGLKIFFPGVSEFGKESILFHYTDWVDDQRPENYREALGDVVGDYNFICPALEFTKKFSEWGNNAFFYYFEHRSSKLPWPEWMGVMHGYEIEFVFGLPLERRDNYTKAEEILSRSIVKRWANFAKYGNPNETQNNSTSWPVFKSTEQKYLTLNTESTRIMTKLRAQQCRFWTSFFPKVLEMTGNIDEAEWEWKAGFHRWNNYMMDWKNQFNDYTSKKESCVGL
acetylcholinesterase (AChE) (Homo sapiens, UniProt P22303), sequence (P22303 whole entry): as the sequence (P22303 whole entry) above

SMILES | inhibition at 100 µM [1] [%] | IC50 (Acetylcholinesterase [2]) [nM] | IC50 (Cholinesterase [3]) [nM] | Ratio IC50 [4] | IC50 (Acetylcholinesterase [5]) [nM] | inhibition at 100 µM [6] [%] | IC50 (Cholinesterase [7]) [nM] | CC50 [8] [nM]
O=C1CCCC2=C1C(c1ccc(OCc3cccc(F)c3)c(Br)c1)C1=C(CCCC1=O)N2 | 39 | > 100000 | 142 | 2.5 | > 100000 | 22 | 388 | 
CN1C2=C(C(=O)CCC2)C(c2ccc(OCc3ccc(Cl)cc3)c(Cl)c2)C2=C1CCCC2=O |  | > 100000 |  |  |  | 23 | 1660 | 
COc1cc(C2C3=C(CCCC3=O)NC3=C2C(=O)CCC3)ccc1OCc1ccc(F)cc1 |  | > 100000 | 98 | 2.5 | 125000 | 27 | 242 | ≥ 100000
COc1cc(C2C3=C(CCCC3=O)N(C)C3=C2C(=O)CCC3)ccc1OCc1ccc(F)cc1 |  | > 100000 |  |  |  | 33 | 2440 | 
O=C1CCCC2=C1C(c1ccc(OCc3ccccc3)cc1)C1=C(CCCC1=O)N2 |  | > 100000 |  |  |  | 24 | 6010 | 
CCOc1cc(C2C3=C(CCCC3=O)NC3=C2C(=O)CCC3)ccc1OCc1ccccc1 |  | > 100000 |  |  |  | 19 | 752 | 
O=C1CCCC2=C1C(c1ccc(OCc3ccccc3)c(Br)c1)C1=C(CCCC1=O)N2 |  | > 100000 |  |  |  | 14 | 633 | 
COc1cc(C2C3=C(CCCC3=O)NC3=C2C(=O)CCC3)ccc1OS(=O)(=O)c1ccc(C)cc1 |  | > 100000 |  |  |  | 15 | 959 | 
